T1: human dopamine D2L receptor (wild type, non-tagged) (human), P14416
T1 chain: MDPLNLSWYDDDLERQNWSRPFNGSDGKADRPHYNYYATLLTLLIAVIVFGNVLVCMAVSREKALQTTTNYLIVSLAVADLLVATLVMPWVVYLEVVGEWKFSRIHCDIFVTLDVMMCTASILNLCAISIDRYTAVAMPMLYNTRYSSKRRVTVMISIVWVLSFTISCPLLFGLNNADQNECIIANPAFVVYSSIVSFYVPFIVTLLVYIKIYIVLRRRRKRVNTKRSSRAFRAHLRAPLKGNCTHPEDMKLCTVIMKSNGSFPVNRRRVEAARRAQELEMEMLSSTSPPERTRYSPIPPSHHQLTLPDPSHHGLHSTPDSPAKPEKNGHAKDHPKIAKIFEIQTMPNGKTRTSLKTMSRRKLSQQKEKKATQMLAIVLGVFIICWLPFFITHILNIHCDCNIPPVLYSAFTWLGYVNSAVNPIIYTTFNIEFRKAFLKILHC

B1: human dopamine D2L receptor (wild type, non-tagged), P14416 1-443 (receptor)
chain: T1 chain
B2: human dopamine D2S receptor (receptor, UniProt P14416-2 1-414, looked up)
chain: MDPLNLSWYDDDLERQNWSRPFNGSDGKADRPHYNYYATLLTLLIAVIVFGNVLVCMAVSREKALQTTTNYLIVSLAVADLLVATLVMPWVVYLEVVGEWKFSRIHCDIFVTLDVMMCTASILNLCAISIDRYTAVAMPMLYNTRYSSKRRVTVMISIVWVLSFTISCPLLFGLNNADQNECIIANPAFVVYSSIVSFYVPFIVTLLVYIKIYIVLRRRRKRVNTKRSSRAFRAHLRAPLKEAARRAQELEMEMLSSTSPPERTRYSPIPPSHHQLTLPDPSHHGLHSTPDSPAKPEKNGHAKDHPKIAKIFEIQTMPNGKTRTSLKTMSRRKLSQQKEKKATQMLAIVLGVFIICWLPFFITHILNIHCDCNIPPVLYSAFTWLGYVNSAVNPIIYTTFNIEFRKAFLKILHC
notes: human dopamine D2S receptor (short form of the D2 receptor), non-tagged; source: CHO-K1, stably expressing, in the membrane of living cells
B3: human dopamine D3 receptor (receptor, UniProt P35462 1-400, looked up)
chain: MASLSQLSGHLNYTCGAENSTGASQARPHAYYALSYCALILAIVFGNGLVCMAVLKERALQTTTNYLVVSLAVADLLVATLVMPWVVYLEVTGGVWNFSRICCDVFVTLDVMMCTASILNLCAISIDRYTAVVMPVHYQHGTGQSSCRRVALMITAVWVLAFAVSCPLLFGFNTTGDPTVCSISNPDFVIYSSVVSFYLPFGVTVLVYARIYVVLKQRRRKRILTRQNSQCNSVRPGFPQQTLSPDPAHLELKRYYSICQDTALGGPGFQERGGELKREEKTRNSLSPTIAPKLSLEVRKLSNGRLSTSLKLGPLQPRGVPLREKKATQMVAIVLGAFIVCWLPFFLTHVLNTHCQTCHVSPELYSATTWLGYVNSALNPVIYTTFNIEFRKAFLKILSC
notes: human dopamine D3 receptor, non-tagged; source: dihydrofolate reductase gene-deficient CHO-K1 cells, stably expressing, in the membrane of living cells

Experiments:
SNAP-D2L receptor = target: T2, SNAP-D2L receptor (Homo sapiens, UniProt P14416); assay: Single-molecule TIRF-M of SNAP-D2L receptors in CHO cells with ligands (dimerization, mobility, colocalization); assay type: cell-based; conditions: for effect on monomer/dimer ratio and mobility of the SNAP-D2L receptor compared to ligand-free conditions: Alexa546-labeled SNAP-D2L in CHO cells incubated with ligand; for Average Dlat 24°C (average lateral diffusion coefficient) / Density (spots µm-2) / fraction of dimers: SNAP-D2L in CHO cells; for Average Dlat 24°C (average lateral diffusion coefficient) / Density (spots µm-2): mean ± s.d.; for mean apparent colocalization lifetime τ of two receptors in a dimer: SNAP-D2L incubated with ligand, one-phase exponential decay fit, 120 trajectories, ligand free 0.46 s; for fraction of dimers: 10-fold Ki, ligand-free 30%
T2 construct: expressed in transfected cells
Protocol: 24 h before the TIRF-experiment dried and cleaned glass slides were placed in a 12 well plate and were coated by incubation with 20 μg ml^−1 fibronectin (Sigma–Aldrich) in sterile PBS for 1 h at 37 °C. After coating, fibronectin was aspirated and the glass surface was rinsed one time with sterile PBS. CHO cells expressing SNAP-D2L, SNAP-CD86, SNAP-CD28, D2L, D2S or D3 receptors were seeded on coated glass slides in phenol-red-free DMEM/F12 supplemented with 10% FCS and were allowed to adhere overnight at 37 °C and 5% CO2.
Subsequently, cells were washed three times with phenol red-free DMEM/F12 supplemented with 10% FBS, each time followed by 5 min incubation at 37 °C.
For the ligand treatment experiments, the indicated concentration of the corresponding ligand in phenol red-free DMEM/F12 supplemented with 10% FBS were added to stably transfected CHO cells, which were ready for imaging, for 1 h before imaging.
Subsequently after labeling, cells were washed three times with phenol red-free DMEM/F12 supplemented with 10% FBS. […] Finally the imaging chamber was refilled with fresh imaging buffer and mounted immediately on a microscope stage for TIRF-M imaging.
The microscope control and image acquisition were performed by the NIS Elements software (Nikon Instruments). To ensure homogenous illumination, only the central quarter of the chip (300 × 300 pixel) was used for imaging analysis.
The image analysis procedures have been described in detail previously. An automated single particle tracking (ASPT) algorithm[58] implemented in custom-written software, GMimPro (www.mashanov.uk), was used to identify and track individual fluorescent spots on sequential video frames. ASPT settings used were FWHM300nm, R5, L20, Q10 and C999. Output from this image analysis gave fluorophore centroid positions (with 25 nm precision), integrated fluorophore intensities, total fluorophore number and trajectory lifetime. Spatial trajectories and intensity trajectories (i.e. intensities vs. time) were then further analysed to determine: the lateral diffusion coefficient, Dlat, which was derived from averaged mean squared displacement (MSD) versus time interval (δt), the average fluorescent spot density (spot μm^−^2) and distribution across the cell membrane and the intensity distribution of individual fluorescent spots and intensity fluctuation with time as well as the lifetime of colocalization. The Dlat was measured for each cell separately and the average value (average Dlat, mean ± standard deviation (s.d.)) was calculated for an indicated number of cells. Slow-moving objects Dlat < 0.02 μm^2 s^−1 were excluded from the analysis and only cells with a mobile trajectory fraction (trajectories with a Dlat > 0.02 μm^2 s^−1) over 0.75 were used for further analysis. Intensity distributions of fluorescent spots identified over the first 10-frame time window of TIRF illumination were fitted with a sum of Gaussian distributions (with standard deviation proportional to square root of intensity level) using the PRISM routine. The ratio of the areas under the Gaussian curves was calculated to give the percentage of the underlying component. Unpaired two-tailed Student´s t-tests were used for statistical significance.

human D2L = target: T3, human D2L (Homo sapiens, UniProt P14416); assay: [3H]spiperone competition/saturation binding, membranes of CHO cells expressing human D2L; conditions: [³H]spiperone competition, CHO cell membranes; read-out: Ki ± s.d. hD2L
T3 construct: expressed in transfected cells

SNAP-D2L receptors = SNAP-D2L receptors (Homo sapiens, UniProt P14416+P16455, A127T/A154D/C150Q/C62A/E30R/G131K/G132T/G153L/K125A/K32I/L33F/M134L/N157G/Q115S/Q116H/R128A/R135S/S151G/S152D/S159E); assay: [3H]spiperone competition/saturation binding, membranes of CHO cells expressing SNAP-D2L
Sequence of SNAP-D2L receptors (P16455+P14416 fused with the stated changes): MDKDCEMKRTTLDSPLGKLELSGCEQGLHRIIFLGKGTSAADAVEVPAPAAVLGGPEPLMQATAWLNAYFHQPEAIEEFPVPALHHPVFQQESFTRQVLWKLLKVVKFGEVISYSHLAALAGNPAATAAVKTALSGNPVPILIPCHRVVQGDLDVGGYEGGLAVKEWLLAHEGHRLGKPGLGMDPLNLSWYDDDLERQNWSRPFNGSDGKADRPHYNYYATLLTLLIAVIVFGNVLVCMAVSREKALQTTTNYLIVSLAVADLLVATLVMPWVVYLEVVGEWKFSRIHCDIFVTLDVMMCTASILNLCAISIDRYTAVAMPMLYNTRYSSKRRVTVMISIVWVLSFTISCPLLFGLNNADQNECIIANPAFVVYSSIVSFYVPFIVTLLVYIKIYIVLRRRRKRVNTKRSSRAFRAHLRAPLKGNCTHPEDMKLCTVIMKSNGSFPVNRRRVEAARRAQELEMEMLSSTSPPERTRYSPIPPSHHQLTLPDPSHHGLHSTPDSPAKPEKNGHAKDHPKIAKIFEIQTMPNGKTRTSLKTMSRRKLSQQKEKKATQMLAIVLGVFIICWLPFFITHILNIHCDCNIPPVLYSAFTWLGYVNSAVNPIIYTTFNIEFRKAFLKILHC
Protocol: Membrane preparations were obtained using the methods described previously[50]. […] The homogenized membranes were shock-frozen in liquid nitrogen and stored at −80 °C until usage. The protein concentration was determined by the Lowry method[51] using bovine serum albumin as a standard.
Receptor binding studies were carried out as described previously[27][50][52]. […] The Ki values for the compounds were obtained by competition experiments.
Analysis of the saturation experiments were performed using a nonlinear regression analysis of the data for the determination of KD and Bmax values using PRISM (GraphPad Software). Competition curves were fitted to a sigmoid curve by nonlinear regression analysis in which the log IC50 value and the Hill coefficient were free parameters. IC50 values were transformed to Ki values according to the equation of Cheng and Prusoff [53].

human D2S = target: T4, human D2S (Homo sapiens, UniProt P14416); assay: [3H]spiperone competition/saturation binding, membranes of CHO cells expressing human D2S; conditions: [³H]spiperone competition, CHO cell membranes; read-out: Ki ± s.d. hD2S
T4 construct: expressed in transfected cells

human D3 = target: T5, human D3 (Homo sapiens, UniProt P35462); assay: [3H]spiperone competition/saturation binding, membranes of CHO cells expressing human D3; conditions: [³H]spiperone competition, CHO cell membranes; read-out: Ki ± s.d. hD3
T5 construct: expressed in transfected cells

[1] = target: T1, human dopamine D2L receptor (wild type, …); assay: single-molecule TIRF microscopy (intensity distribution of fluorescent spots); receptors on living CHO cells labelled 1 h at 37 °C with a fluorescent (Cy3B) antagonist (1c, 4a or 4b) at 10-fold Ki; spots fitted with a mixed Gaussian model; conditions: remark: other sources report otherwise
[2] = target: T1, human dopamine D2L receptor (wild type, …); assay: single-molecule TIRF microscopy (intensity distribution of fluorescent spots); receptors on living CHO cells labelled 1 h at room temperature with a fluorescent (Cy3B) agonist (5a or 5b) at 10-fold Ki; spots fitted with a mixed Gaussian model; conditions: remark: other sources report otherwise
[3] = target: the molecule itself; assay: single-molecule TIRF microscopy (intensity distribution of fluorescent spots); receptors on living CHO cells labelled 1 h at 37 °C with a fluorescent (Cy3B) antagonist (1c, 4a or 4b) at 10-fold Ki; spots fitted with a mixed Gaussian model
[4] = 10 x Ki value labeling concentration
[5] = 100 x Ki value labeling concentration

Molecule | Average Dlat 24°C (average lateral diffusion coefficient) (SNAP-D2L receptor; [4]) | Density (spots µm-2) (SNAP-D2L receptor; [4]) | Average Dlat 24°C (average lateral diffusion coefficient) (SNAP-D2L receptor; [5]) | Density (spots µm-2) (SNAP-D2L receptor; [5]) | Ki (human D2L) | Ki (SNAP-D2L receptors) | Ki (human D2S) | Ki (human D3) | also measured
CCCCn1cc(CCCOc2ccc(CN3CCN(c4ccccc4OC)CC3)cc2OC)nn1 [1a] | 0.087 ± 0.003 µm² s-1 | 0.68 ± 0.04 spots µm-2 | 0.083 ± 0.005 µm² s-1 | 0.69 ± 0.03 spots µm-2 | 67 ± 33 nM | 280 ± 190 nM | 53 ± 37 nM | 615 ± 370 nM | effect on monomer/dimer ratio and mobility of the SNAP-D2L receptor compared to ligand-free conditions (SNAP-D2L receptor): no effect; mean apparent colocalization lifetime τ of two receptors in a dimer (SNAP-D2L receptor): 0.42 s
COc1cc(CN2CCN(C)CC2)ccc1OCCCc1cn(CCCCCCCCn2cc(CCCOc3ccc(CN4CCN(c5ccccc5OC)CC4)cc3OC)nn2)nn1 [3a] | 0.083 ± 0.004 µm² s-1 | 0.67 ± 0.03 spots µm-2 | – | – | 9.8 ± 9.8 nM | – | 7.3 ± 1.3 nM | 220 ± 83 nM | –
COc1ccccc1N1CCN(Cc2ccc(OCCCc3cn(CCCCCCCCn4cc(CCCOc5ccc(CN6CCN(c7ccccc7OC)CC6)cc5OCCCCN)nn4)nn3)c(OCCCCN)c2)CC1 [2b] | 0.075 ± 0.004 µm² s-1 | 0.64 ± 0.04 spots µm-2 | 0.071 ± 0.05 µm² s-1 | 0.67 ± 0.02 spots µm-2 | 3 ± 0.29 nM | 2.4 ± 1.1 nM | 3 ± 0.92 nM | 2.6 ± 0.64 nM | fraction of dimers (SNAP-D2L receptor): 58%
CCCCn1cc(CCCOc2ccc(CN3CCN(c4ccccc4OC)CC3)cc2OCCCCN)nn1 [1b] | 0.085± 0.004 µm² s-1 | 0.66 ± 0.04 spots µm-2 | 0.081 ± 0.006 µm² s-1 | 0.69 ± 0.04 spots µm-2 | 15 ± 8 nM | 4.8 ± 0.28 nM | 18 ± 5.7 nM | 70 ± 24 nM | effect on monomer/dimer ratio and mobility of the SNAP-D2L receptor compared to ligand-free conditions (SNAP-D2L receptor): no effect
COc1cc(CN2CCN(c3ccccc3OC)CC2)ccc1OCCCc1cn(CCCCCCCCn2cc(CCCOc3ccc(CN4CCN(c5ccccc5OC)CC4)cc3OC)nn2)nn1 [2a] | 0.074 ± 0.004 µm² s-1 | 0.65 ± 0.04 spots µm-2 | 0.075 ± 0.005 µm² s-1 | 0.65 ± 0.04 spots µm-2 | 22 ± 6.7 nM | 20 ± 7.1 nM | 41 ± 19 nM | 84 ± 24 nM | fraction of dimers (SNAP-D2L receptor): 66%; mean apparent colocalization lifetime τ of two receptors in a dimer (SNAP-D2L receptor): 1.16 s
COc1cc(CN2CCN(c3ccccc3OC)CC2)ccc1OCCCc1cn(CCCCCCCCn2cc(CCCOc3ccc(CN4CCN(C5CCCCC5)CC4)cc3OC)nn2)nn1 [3b] | 0.083 ± 0.005 µm² s-1 | 0.68 ± 0.04 spots µm-2 | – | – | 19 ± 8.2 nM | – | 17 ± 8.1 nM | 100 ± 33 nM | –
B1 | – | – | – | – | – | – | – | – | percent of fluorescent spots that are dimers, labelled with antagonist 1c [1]: 29%; percent of fluorescent spots that are dimers, labelled with antagonist 4a [1]: 30%; percent of fluorescent spots that are dimers, labelled with antagonist 4b [1]: 29%; percent of fluorescent spots that are monomers, labelled with antagonist 1c [1]: 71%; percent of fluorescent spots that are monomers, labelled with antagonist 4a [1]: 70%; stoichiometry N [1]: 2; percent of fluorescent spots that are dimers, labelled with agonist 5a [2]: 45%; percent of fluorescent spots that are dimers, labelled with agonist 5b [2]: 42%
B2 | – | – | – | – | – | – | – | – | stoichiometry N [3]: 2
B3 | – | – | – | – | – | – | – | – | stoichiometry N [3]: 2
